Test results from ChEMBL document CHEMBL1201862, “PubChem BioAssay data set” (2004).
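Cells were grown in 96-well plates and exposed to each compound for 48 hours at five concentrations; endpoints were interpolated linearly between bracketing concentrations, or set to the highest concentration if not reached. GI50 = concentration required for 50% inhibition of growth.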 The source made the active and inactive calls. Cut-off read from the data, not from the text of the source: active = GI50 up to about 1.1 µM and inactive = higher.

How the values were obtained:
Assay in all cases: inhibition of tumour cell growth, NCI panel, 48 h
[1] = test system: Malme-3M
[2] = test system: U-251
[3] = test system: SF-295
[4] = test system: MCF7
[5] = test system: SF-268
[6] = test system: CAKI-1
[7] = test system: HCT-116
[8] = test system: UO-31
[9] = test system: KM12
[10] = test system: A549
[11] = test system: SK-MEL-28
[12] = test system: OVCAR-4
[13] = test system: Hs-578T
[14] = test system: EKVX
[15] = test system: SNB-19
[16] = test system: ACHN
[17] = test system: HL-60
[18] = test system: K562
[19] = test system: HCT-15
[20] = test system: BT-549

Measured: GI50

Cc1occc(=O)c1O [MALTOL]
inactive: [1] > 100 µM | [2] > 100 µM | [3] > 100 µM | [4] > 100 µM | [5] > 100 µM | [6] > 100 µM | [7] > 100 µM | [8] > 100 µM | [9] > 100 µM | [10] > 100 µM | [11] > 100 µM | [12] > 100 µM | [13] > 100 µM | [14] > 100 µM | [15] > 100 µM | [16] > 100 µM | [17] > 100 µM | [18] > 100 µM
4.25 µM: [19]

CCOP(=O)(C=C=C(C)C)OCC
> 100 µM: [19]
inactive: [1] > 100 µM | [2] > 100 µM | [3] > 100 µM | [4] > 100 µM | [5] > 100 µM | [6] > 100 µM | [7] > 100 µM | [9] > 100 µM | [10] > 100 µM | [11] > 100 µM | [12] > 100 µM | [13] > 100 µM | [14] > 100 µM | [15] > 100 µM | [16] > 100 µM | [17] 94.6 µM | [18] > 100 µM

COc1cc(CC(C)N)ccc1O (stereo not given)
inactive: [1] > 100 µM | [2] > 100 µM | [3] > 100 µM | [4] > 100 µM | [5] > 100 µM | [6] > 100 µM | [7] > 100 µM | [8] > 100 µM | [9] > 100 µM | [10] > 100 µM | [11] > 100 µM | [12] > 100 µM | [13] > 100 µM | [14] > 100 µM | [15] > 100 µM | [16] > 100 µM | [17] > 100 µM | [18] > 100 µM
> 100 µM: [19]

C/C(=N\O)C1CC2C=C(C#N)C1N(Cc1ccccc1)C2 (stereo not given)
inactive: [1] > 100 µM | [2] 46.3 µM | [3] > 100 µM | [4] > 100 µM | [5] > 100 µM | [6] > 100 µM | [7] > 100 µM | [8] > 100 µM | [9] > 100 µM | [10] > 100 µM | [11] > 100 µM | [13] > 100 µM | [14] > 100 µM | [15] > 100 µM | [16] 93.8 µM | [17] > 100 µM | [18] > 100 µM
> 100 µM: [19]

Cc1ccc2nc(-c3ccc(-c4nc5ccc(C)cc5o4)c(O)c3)oc2c1
> 100 µM: [19]
inactive: [2] > 100 µM | [4] > 100 µM | [5] > 100 µM | [7] > 100 µM | [8] > 100 µM | [10] > 100 µM | [11] > 100 µM | [13] > 100 µM | [15] > 100 µM | [16] > 100 µM | [17] > 100 µM | [18] > 100 µM

C=CCc1cc(OC)c2c(c1)C(O)CC(c1ccccc1)O2 (stereo not given)
96.6 µM: [19]
inactive: [1] > 100 µM | [2] > 100 µM | [3] > 100 µM | [5] > 100 µM | [6] 62.7 µM | [7] > 100 µM | [8] > 100 µM | [9] > 100 µM | [10] > 100 µM | [11] > 100 µM | [12] > 100 µM | [14] > 100 µM | [15] > 100 µM | [16] > 100 µM | [17] 35.6 µM | [18] 23.6 µM

COC(=O)C1CC/C(=N\c2cccc(C(F)(F)F)c2)N1 (stereo not given)
inactive: [1] > 100 µM | [2] > 100 µM | [3] > 100 µM | [5] > 100 µM | [6] > 100 µM | [7] > 100 µM | [8] > 100 µM | [9] > 100 µM | [10] > 100 µM | [11] > 100 µM | [12] > 100 µM | [14] > 100 µM | [15] > 100 µM | [16] > 100 µM | [17] > 100 µM | [18] > 100 µM
> 100 µM: [19]

CCOC(=O)C1N(S(=O)(=O)c2ccc(C)cc2)CCC12C(c1ccc(OC)cc1)NC1CCCCC12 (stereo not given)
inactive: [1] 67.3 µM | [2] 70.8 µM | [3] 77.6 µM | [5] > 100 µM | [6] > 100 µM | [7] > 100 µM | [8] > 100 µM | [9] > 100 µM | [10] > 100 µM | [11] > 100 µM | [12] 27.2 µM | [14] > 100 µM | [15] > 100 µM | [16] > 100 µM | [17] > 100 µM | [18] > 100 µM
> 100 µM: [19]

COc1cc(C2c3cc4c(cc3[C@@H](Nc3ccc(F)cc3)C3COC(=O)[C@H]23)OCO4)cc(OC)c1O (stereo not given in full)
3.56 µM: [19]
active: [2] 1.09 µM | [3] 0.834 µM | [4] 0.408 µM | [6] 0.514 µM | [10] 0.224 µM | [16] 0.476 µM
inactive: [1] 2.48 µM | [5] 3.17 µM | [7] 2.77 µM | [8] 1.65 µM | [9] 3.77 µM | [11] 7.69 µM | [12] 15.1 µM | [14] 3.76 µM | [20] 2.61 µM | [15] 1.38 µM | [18] 3.87 µM

O=C(O)C1Cc2[nH]cnc2CN1 (stereo not given)
> 100 µM: [19]
inactive: [1] > 100 µM | [2] > 100 µM | [3] > 100 µM | [5] > 100 µM | [6] > 100 µM | [7] > 100 µM | [8] > 100 µM | [9] > 100 µM | [10] > 100 µM | [11] > 100 µM | [12] > 100 µM | [14] > 100 µM | [15] > 100 µM | [16] > 100 µM | [17] > 100 µM | [18] > 100 µM

O=C1C2C3CCC(C2C(=O)N1CO)C1C2C(=O)N(CO)C(=O)C2C31 (stereo not given)
inactive: [1] > 100 µM | [2] > 40.3 µM | [3] > 64.9 µM | [5] > 53.5 µM | [6] > 96.6 µM | [7] 28.2 µM | [8] > 100 µM | [9] > 89.3 µM | [10] 31 µM | [11] > 58.9 µM | [12] > 43.9 µM | [14] > 100 µM | [15] > 100 µM | [16] > 44.1 µM | [17] 12 µM | [18] 35.2 µM
26.5 µM: [19]

COC(=O)CCCC1(CCCC(=O)OC)CCCCCCCCC(CCCC(=O)OC)(CCCC(=O)OC)C(=O)C1=O
> 100 µM: [19]
inactive: [1] 26.1 µM | [2] 18.9 µM | [3] > 100 µM | [4] 85.5 µM | [5] 19.2 µM | [6] 9.84 µM | [7] 9.44 µM | [9] 38.8 µM | [10] 11.6 µM | [11] > 100 µM | [12] 17.3 µM | [13] 14.8 µM | [14] > 100 µM | [15] > 100 µM | [16] 40.2 µM | [17] 2.17 µM | [18] 4.78 µM
active: [8] 0.0502 µM

C/C(=N\Nc1nc2ccccc2[nH]1)c1ccncn1
active: [1] 0.138 µM | [2] 0.147 µM | [3] 0.115 µM | [4] 0.152 µM | [5] 0.0879 µM | [6] 0.123 µM | [7] 0.113 µM | [8] 0.114 µM | [9] 0.27 µM | [10] 0.151 µM | [11] 0.396 µM | [12] 0.324 µM | [14] 0.133 µM | [15] 0.246 µM | [16] 0.0441 µM | [17] 0.0183 µM | [18] 0.681 µM
inactive: [13] 80 µM
0.161 µM: [19]

COC(=O)/C=C/c1ccc2c(c1)CCC2
inactive: [1] 66.5 µM | [2] 9.79 µM | [3] 56 µM | [4] 52.5 µM | [5] 42.9 µM | [6] 17.4 µM | [7] 22.3 µM | [8] 45 µM | [10] 46.1 µM | [11] > 100 µM | [12] 74.3 µM | [13] > 100 µM | [14] 82.6 µM | [15] 48.5 µM | [16] 23.7 µM | [17] 27.5 µM | [18] 30.8 µM
17.3 µM: [19]

CC12c3ccccc3C(OC=O)(c3ccccc31)C1(C)c3ccccc3C2(OC=O)c2ccccc21
inactive: [1] > 100 µM | [2] 95.5 µM | [3] > 100 µM | [5] > 100 µM | [6] > 100 µM | [7] > 100 µM | [8] > 100 µM | [9] > 100 µM | [10] > 100 µM | [11] > 100 µM | [12] > 100 µM | [14] > 100 µM | [15] > 100 µM | [16] > 100 µM | [17] > 100 µM | [18] > 100 µM
> 100 µM: [19]

COc1ccc(N2C(=O)C3c4[nH]c5ccccc5c4C4CCCCCCC4C3C2=O)cc1 (stereo not given)
inactive: [1] 16.6 µM | [2] 4.06 µM | [3] 11.6 µM | [5] 12.7 µM | [6] 17 µM | [7] 3.85 µM | [8] 17.4 µM | [9] > 51.2 µM | [10] 6.76 µM | [11] 18.8 µM | [12] 15.9 µM | [14] 14 µM | [15] 10.2 µM | [16] 6.38 µM | [17] 22.5 µM | [18] 10.1 µM
6.71 µM: [19]
